Results from patent publication US20190248834A1, “ENDOMORPHIN-2, TETRAPEPTIDE DERIVATIVES THEREOF, AND USES THEREOF” (priority 2016, published 2019).

System: jammed middle finger, pain and swelling
Assay: Example 15: analgesic effect on injured fingers, topical
Type: in vivo, human
Settings: 1% (w/v) in WEP442, topical
From the text: A subject, jammed their middle finger causing severe pain and swelling (inflammation). The subject topically applied a composition containing 1% (w/v) N-Ac-Tyr-Pro-Phe-Phe-NH2 ([…]) in WEP442 to the affected finger.

## CC(=O)N[C@@H](Cc1ccc(O)cc1)C(=O)N1CCC[C@H]1C(=O)N[C@@H](Cc1ccccc1)C(=O)N[C@@H](Cc1ccccc1)C(N)=O [N-Ac-Tyr-Pro-Phe-Phe-NH2]
  relief of pain and swelling: pain and much of the swelling disappeared
  time to relief: almost immediately
